Results on 25 compounds are retold here after patent US20020026053A1, “Novel 3-(substituted) -2- indolinones compounds and use thereof as inhibitors of protein kinase activity” (priority 1997, published 2002).

Experiment [1] concerns PDGF-R. In words: PDGF-R Assay (cellular ELISA, U1242 cells). It counts as cell-based. Also on record: concentration or dose not given beside the values. In a few lines: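 U1242 cells seeded in 0.5% serum, serum-starved, then exposed to compound for 2 hr at 37°C before 5–10 min ligand stimulation and lysis in HNTG. Lysate captured on receptor-antibody-coated plates; phosphotyrosine detected with polyclonal anti-pTyr, goat anti-rabbit IgG and ABTS/H2O2, A410 (ref 630 nm), versus untreated cells.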
On the technique in general: ELISA stands for enzyme-linked immunosorbent assay.

The test system of experiment [2] is FLK-1 receptor. The experiment in a line: FLK-1 Assay (cellular/catalytic ELISA, VEGF-stimulated phosphotyrosine). It counts as cell-based. Also on record: concentration or dose not given beside the values. The method, boiled down: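 NIH3T3 C7#3 cells engineered to express Flk-1 were serum-starved overnight (0.1% FBS), then exposed to compound for 2 h at 37 °C (final dilution 1:200, 0.5% DMSO) before VEGF stimulation. Lysates captured on anti-FLK-1 antiserum plates; phosphotyrosine detected by UB40 antibody/POD-ABTS ELISA versus untreated controls.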

For the compound `CNS(=O)(=O)c1ccc2c(c1)C(=Cc1ccc(C)cc1)C(=O)N2` [10736/D05], the “PDGF Kinase % Inhibition (P.119)” value in experiment [1] worked out at 3.6%. For the same compound, the “Flk Kinase % Inhibition (P.110)” value in experiment [2] is recorded as 15.2%.

With `CNS(=O)(=O)c1ccc2c(c1)C(=Cc1cccc(Cl)c1)C(=O)N2` [10736/D06], the “PDGF Kinase % Inhibition (P.119)” value in experiment [1] was found to be 19.8%. Moreover, the “Flk Kinase % Inhibition (P.110)” value in experiment [2] was found to be 12.2%.

Turning to `CNS(=O)(=O)c1ccc2c(c1)C(=Cc1cccc(F)c1)C(=O)N2` [10736/D07], the “PDGF Kinase % Inhibition (P.119)” value in experiment [1] came to 4.4%. For the same compound, in experiment [2], the “Flk Kinase % Inhibition (P.110)” value amounted to 7.0%.

On to `CNS(=O)(=O)c1ccc2c(c1)C(=Cc1ccccc1F)C(=O)N2` [10736/D08], for which, in experiment [1], the “PDGF Kinase % Inhibition (P.119)” value amounted to 1.8%. The “Flk Kinase % Inhibition (P.110)” value in experiment [2] is 11.0%.

With `CCc1ccc(C=C2C(=O)Nc3ccc(S(=O)(=O)NC)cc32)cc1` [10736/D09], the “PDGF Kinase % Inhibition (P.119)” value in experiment [1] is on record as −6.5%. The “Flk Kinase % Inhibition (P.110)” value in experiment [2] is listed as 8.5%.

Consider `CNS(=O)(=O)c1ccc2c(c1)C(=Cc1cccc(OC)c1)C(=O)N2` [10736/D10], for which the “PDGF Kinase % Inhibition (P.119)” value in experiment [1] is −2.1%. For the same compound, the “Flk Kinase % Inhibition (P.110)” value in experiment [2] is −11.6%.

In the case of `CNS(=O)(=O)c1ccc2c(c1)C(=Cc1ccccc1Cl)C(=O)N2` [10736/D11], the “PDGF Kinase % Inhibition (P.119)” value in experiment [1] is listed as −4.3%. Moreover, the “Flk Kinase % Inhibition (P.110)” value in experiment [2] was 12.5%.

For `O=C1Nc2ccc(S(=O)(=O)Nc3ccc(C(F)(F)F)cc3)cc2C1=Cc1ccc(Cl)cc1` [10736/E02], in experiment [1], the “PDGF Kinase % Inhibition (P.119)” value is reported as 21.5%. For the same compound, the “Flk Kinase % Inhibition (P.110)” value in experiment [2] was determined as 8.2%.

Turning to `O=C1Nc2ccc(S(=O)(=O)Nc3ccc(C(F)(F)F)cc3)cc2C1=Cc1ccccc1C(F)(F)F` [10736/E03], the “PDGF Kinase % Inhibition (P.119)” value in experiment [1] was 96.1%. Further, the “Flk Kinase % Inhibition (P.110)” value in experiment [2] turned out to be 17.7%.

As for `Cc1cccc(C=C2C(=O)Nc3ccc(S(=O)(=O)Nc4ccc(C(F)(F)F)cc4)cc32)c1` [10736/E04], the “PDGF Kinase % Inhibition (P.119)” value in experiment [1] is given as 24.6%. In experiment [2], the “Flk Kinase % Inhibition (P.110)” value is recorded as 22.6%.

As to `Cc1ccc(C=C2C(=O)Nc3ccc(S(=O)(=O)Nc4ccc(C(F)(F)F)cc4)cc32)cc1` [10736/E05], in experiment [1], the “PDGF Kinase % Inhibition (P.119)” value came out at 18.5%. For the same compound, the “Flk Kinase % Inhibition (P.110)” value in experiment [2] stood at 30.2%.

On to `O=C1Nc2ccc(S(=O)(=O)Nc3ccc(C(F)(F)F)cc3)cc2C1=Cc1cccc(Cl)c1` [10736/E06], for which, in experiment [1], the “PDGF Kinase % Inhibition (P.119)” value amounted to 10.6%. Besides, the “Flk Kinase % Inhibition (P.110)” value in experiment [2] turned out to be 20.1%.

As for `O=C1Nc2ccc(S(=O)(=O)Nc3ccc(C(F)(F)F)cc3)cc2C1=Cc1cccc(F)c1` [10736/E07], the “PDGF Kinase % Inhibition (P.119)” value in experiment [1] was 18.5%. Also, the “Flk Kinase % Inhibition (P.110)” value in experiment [2] is listed as 15.3%.

As for `O=C1Nc2ccc(S(=O)(=O)Nc3ccc(C(F)(F)F)cc3)cc2C1=Cc1ccccc1F` [10736/E08], the “PDGF Kinase % Inhibition (P.119)” value in experiment [1] is recorded as 7.9%. Besides, the “Flk Kinase % Inhibition (P.110)” value in experiment [2] is listed as 19.3%.

As to `CCc1ccc(C=C2C(=O)Nc3ccc(S(=O)(=O)Nc4ccc(C(F)(F)F)cc4)cc32)cc1` [10736/E09], in experiment [1], the “PDGF Kinase % Inhibition (P.119)” value is −0.4%. Besides, the “Flk Kinase % Inhibition (P.110)” value in experiment [2] amounted to 14.1%.

Consider `COc1cccc(C=C2C(=O)Nc3ccc(S(=O)(=O)Nc4ccc(C(F)(F)F)cc4)cc32)c1` [10736/E10], for which the “PDGF Kinase % Inhibition (P.119)” value in experiment [1] is listed as 26.8%. In experiment [2], the “Flk Kinase % Inhibition (P.110)” value turned out to be 27.2%.

For `O=C1Nc2ccc(S(=O)(=O)Nc3ccc(C(F)(F)F)cc3)cc2C1=Cc1ccccc1Cl` [10736/E11], the “PDGF Kinase % Inhibition (P.119)” value in experiment [1] turned out to be 0.9%. Further, the “Flk Kinase % Inhibition (P.110)” value in experiment [2] was determined as 20.5%.

As for `O=C1Nc2ccc(S(=O)(=O)N3CCOCC3)cc2C1=Cc1ccc(Cl)cc1` [10736/F02], the “PDGF Kinase % Inhibition (P.119)” value in experiment [1] is −14.4%. In experiment [2], the “Flk Kinase % Inhibition (P.110)” value amounted to 23.9%.

For the compound `O=C1Nc2ccc(S(=O)(=O)N3CCOCC3)cc2C1=Cc1ccccc1C(F)(F)F` [10736/F03], the “PDGF Kinase % Inhibition (P.119)” value in experiment [1] is given as −3.0%. The “Flk Kinase % Inhibition (P.110)” value in experiment [2] turned out to be 16.6%.

On to `Cc1cccc(C=C2C(=O)Nc3ccc(S(=O)(=O)N4CCOCC4)cc32)c1` [10736/F04], for which, in experiment [1], the “PDGF Kinase % Inhibition (P.119)” value is listed as 3.6%. In experiment [2], the “Flk Kinase % Inhibition (P.110)” value was found to be 16.5%.

As to `Cc1ccc(C=C2C(=O)Nc3ccc(S(=O)(=O)N4CCOCC4)cc32)cc1` [10736/F05], the “PDGF Kinase % Inhibition (P.119)” value in experiment [1] is on record as −4.8%. For the same compound, in experiment [2], the “Flk Kinase % Inhibition (P.110)” value stood at 15.1%.

`O=C1Nc2ccc(S(=O)(=O)N3CCOCC3)cc2C1=Cc1cccc(Cl)c1` [10736/F06]: in experiment [1], the “PDGF Kinase % Inhibition (P.119)” value is reported as 12.3%. Moreover, the “Flk Kinase % Inhibition (P.110)” value in experiment [2] is 14.5%.

On to `O=C1Nc2ccc(S(=O)(=O)N3CCOCC3)cc2C1=Cc1cccc(F)c1` [10736/F07], for which, in experiment [1], the “PDGF Kinase % Inhibition (P.119)” value is given as −4.3%. Also, the “Flk Kinase % Inhibition (P.110)” value in experiment [2] amounted to 16.6%.

On to `O=C1Nc2ccc(S(=O)(=O)N3CCOCC3)cc2C1=Cc1ccccc1F` [10736/F08], for which the “PDGF Kinase % Inhibition (P.119)” value in experiment [1] is −20.1%. Moreover, the “Flk Kinase % Inhibition (P.110)” value in experiment [2] is recorded as 7.4%.

For `CCc1ccc(C=C2C(=O)Nc3ccc(S(=O)(=O)N4CCOCC4)cc32)cc1` [10736/F09], the “PDGF Kinase % Inhibition (P.119)” value in experiment [1] was 2.7%. In experiment [2], the “Flk Kinase % Inhibition (P.110)” value amounted to 24.0%.
